Data reported in patent publication US9718822B2, “Macrocyclic compounds as Trk kinase inhibitors” (Array BioPharma, Inc., priority 2010, dated 2017).
pIC50: −log10 of the molar value. Like-named read-outs stand apart in the source and are kept apart here.

Key:
[1] = molecular target: histidine-tagged recombinant human TrkA, cytoplasmic domain (Homo sapiens (Human), UniProt P04629); assay: TrkA ELISA Assay; assay type: biochemical; conditions: read-out: TrkA Elisa Enzyme Assay IC50; further: 2.5 nM TrkA
histidine-tagged recombinant human TrkA, cytoplasmic domain, sequence (P04629 440-796): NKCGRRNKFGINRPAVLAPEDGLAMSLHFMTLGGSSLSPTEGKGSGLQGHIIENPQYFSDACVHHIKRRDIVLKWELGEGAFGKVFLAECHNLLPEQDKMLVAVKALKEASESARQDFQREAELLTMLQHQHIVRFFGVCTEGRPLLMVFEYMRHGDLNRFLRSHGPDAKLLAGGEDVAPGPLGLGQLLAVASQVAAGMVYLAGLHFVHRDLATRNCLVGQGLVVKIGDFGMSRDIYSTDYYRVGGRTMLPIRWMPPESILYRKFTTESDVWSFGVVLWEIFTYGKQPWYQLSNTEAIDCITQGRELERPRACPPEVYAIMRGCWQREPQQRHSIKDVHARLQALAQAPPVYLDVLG
Description: An enzyme-linked immunosorbant assay (ELISA) was used to assess TrkA kinase activity in the presence of inhibitors. Immulon 4HBX 384-well microtiter plates (Thermo part #8755) were coated with a 0.025 mg/mL solution of poly (Glu, Ala, Tyr; 6:3:1; Sigma P3899). […] The assay buffer consisted of 25 mM MOPS pH 7.5, 0.005% (v/v) Triton X-100 and 5 mM MgCl2. The reaction mixture was removed from the plate by washing with PBS containing 0.1% (v/v) Tween 20. The phosphorylated reaction product was detected using 0.2 μg/mL of a phosphotyrosine specific monoclonal antibody (clone PY20) conjugated to horseradish peroxidase in conjunction with the TMB Peroxidase Substrate System (KPL). After the addition of 1M phosphoric acid, the chromogenic substrate color intensity was quantitated via absorbance at 450 nm. IC50 values were calculated using either a 4 or 5-parameter logistic curve fit.
Table 1 provides averaged IC50 values for compounds of the invention when tested in this assay.

[2] = not given; remark: listed apart in the source
[3] = molecular target: His-tagged recombinant human TrkA (cytoplasmic domain) (Homo sapiens (Human), UniProt P04629); assay: TrkA Binding Assay (LanthaScreen Eu Kinase Binding Assay)
His-tagged recombinant human TrkA (cytoplasmic domain), sequence (P04629 440-796): as above
Description: The ability of a compound to bind to TrkA was measured by Invitrogen's LanthaScreen™ Eu Kinase Binding Assay. […] After a 60-minute incubation at 22° C., the reaction was measured using the EnVision via TR-FRET dual wavelength detection, and the POC was calculated from the emission ratio. The compound dose response data was fit to a 4-parameter logistic model and IC50 was defined as the concentration of compound at 50 POC.

`O=C1NCCCn2cc(F)cc(c2=O)[C@H]2CCCN2c2ccn3ncc1c3n2` [Example 1, (6R)-9-fluoro-2,11,15,19,20,23-hexaazapentacyclo[15.5.2.1^7,11.0^2,6.0^20,24]pentacosa-1(23),7,9,17(24),18,21-hexaene-16,25-dione] showed a ring closure, yield of all isomers (from NCCCn1cc(F)cc([C@H]2CCCN2c2ccn3ncc(C(=O)O)c3n2)c1=O, amide bond, EDCI/HOBt, DCM, 26.7 mM, 25.0 °C, 6.0 h) of 39%, a pIC50 [1] of 7.00 to 9.00 and a ring closure, isolated yield ([2]; from NCCCn1cc(F)cc([C@H]2CCCN2c2ccn3ncc(C(=O)O)c3n2)c1=O, amide bond, 14-membered ring, EDCI/HOBt/TEA, DMF/DCM 1:2, 26.7 mM, 6.0 h) of 39%. For the same compound, the pIC50 [3] was 7.00 to 9.00.
Work on `O=C1NC[C@H](O)Cn2cc(F)cc(c2=O)[C@H]2CCCN2c2ccn3ncc1c3n2` [Example 5, (6R,13S)-9-fluoro-13-hydroxy-2,11,15,19,20,23-hexaazapentacyclo-[15.5.2.1^7,11.0^2,6.0^20,24]pentacosa-1(23),7,9,17(24),18,21-hexaene-16,25-dione] yielded a ring closure, yield of all isomers (from O=C(NC[C@H](O)CCl)c1cnn2ccc(N3CCC[C@@H]3c3cc(F)c[nH]c3=O)nc12, amine bond, Cs2CO3, DMF, […], 85.0 °C, 2.0 h) of 27%, a pIC50 [1] of 7.00 to 9.00 and a ring closure, isolated yield ([2]; from O=C(NC[C@H](O)CCl)c1cnn2ccc(N3CCC[C@@H]3c3cc(F)c[nH]c3=O)nc12, other bond, 14-membered ring, Cs2CO3, DMF, […], 85.0 °C, 2.0 h) of 12%. For the same compound, the pIC50 [3] was 7.00 to 9.00.
In the case of `O=C1OCCn2cc(F)cc(c2=O)[C@H]2CCCN2c2ccn3ncc1c3n2` [Example 15, (6R)-9-fluoro-14-oxa-2,11,18,19,22-pentaazapentacyclo[14.5.2.1^7,11.0^2,6.0^19,23]tetracosa-1(22),7,9,16(23), 17,20-hexaene-15,24-dione], the pIC50 [1] was 5.52 to 7.00 and the ring closure, isolated yield ([2]; from O=C(OCCCl)c1cnn2ccc(N3CCC[C@@H]3c3cc(F)c[nH]c3=O)nc12, ether bond, 13-membered ring, Cs2CO3, DMF, 22.2 mM, 90.0 °C, 16.0 h) was 22%.
`C[C@@H]1CNC(=O)c2cnn3ccc(nc23)N2CCC[C@@H]2c2cc(F)cn(c2=O)C1` [Example 34, (6R,13R)-9-fluoro-13-methyl-2,11,15,19,20,23-hexaazapentacyclo [15.5.2.1^7,11.0^2,6.0^20,24]pentacosa-1(23),7,9,17(24),18,21-hexaene-16,25-dione] gave a ring closure, yield of all isomers (from COC(=O)c1cnn2ccc(N3CCC[C@@H]3c3cc(F)cn(C[C@H](C)CN)c3=O)nc12, amide bond, HATU, DMF, […], 3.0 h, 2 steps) of 10%, a ring closure, isolated yield ([2]; from C[C@H](CN)Cn1cc(F)cc([C@H]2CCCN2c2ccn3ncc(C(=O)O)c3n2)c1=O, amide bond, 14-membered ring, HATU/DIEA, DMF, […], 3.0 h, 2 steps) of 10% and a pIC50 [3] of 7.00 to 9.00.
`O=C1Nc2ccnn2CCOc2ncc(F)cc2[C@H]2CCCN2c2ccn3ncc1c3n2` [Example 38, (6R)-9-fluoro-13-oxa-2,11,16,17,21,25,26,29-octaazahexacyclo [21.5.2.0^2,6.0^7,12.0^16,20.0^26,30]triaconta-1(29),7,9,11,17,19,23(30),24,27-nonaen-22-one] gave a ring closure, yield of all isomers (from COc1ncc(F)cc1[C@H]1CCCN1c1ccn2ncc(C(=O)Nc3ccnn3CCO[Si](c3ccccc3)(c3ccccc3)C(C)(C)C)c2n1, ether bond, DEAD/PPh3, THF, 14.25 mM, 25.0 °C, 18.0 h, 2 steps) of 1.5%, a ring closure, isolated yield ([2]; from O=C(Nc1ccnn1CCO)c1cnn2ccc(N3CCC[C@@H]3c3cc(F)cnc3O)nc12, ether bond, 15-membered ring, DEAD/PPh3, THF, 14.3 mM, 2 steps) of 1.5% and a pIC50 [3] of 7.00 to 9.00.
